According to patent US7691874B2, “Neuroprotective properties of dextrorotatory morphinans” (priority 2004, dated 2010):
Marks after values point to notes of the source that are not given here.

Key:
σ1 receptors = σ1 receptors (Homo sapiens, UniProt Q99720); details: cited from earlier work
C57 BL/6 mice [1] = assay: Conditioned place preference (psychological dependence) following repeated administration of morphinans or PCP; format: in vivo; details: 20 or 40 mg/kg i.p. (PCP 2.5 or 5 mg/kg); vs saline
Method: On day 14, the guillotine doors were raised. […] Data were analyzed between 0900 and 1700 hr.

C57 BL/6 mice [2] = assay: Locomotor activity and locomotor pattern following repeated administration of morphinans or PCP; format: in vivo; details: for locomotor pattern (tracings): 40 mg/kg i.p. (PCP 5 mg/kg), FIG. 3; for marginal activity (circling behaviour; absolute turn angular): 20 or 40 mg/kg i.p./day x 7 (PCP 2.5 or 5 mg/kg), 3-min period; for marginal activity (circling behaviour; absolute turn angular) / locomotor activity (total distance moved): vs saline; for locomotor activity (total distance moved): 20 or 40 mg/kg i.p./day x 7 days, 30 min after final treatment
MA-treated mice [3] = assay: MA-induced hyperlocomotion; format: in vivo; details: morphinan 20 mg/kg i.p. 30 min before MA 1 mg/kg i.p./day x 7
Method: FIGS. 39A-39D show effect of morphinans on the MA-induced hyperactivity in the mice. Each morphinan (20 mg/kg, i.p.) was administered 30 minutes prior to MA (1 mg/kg, i.p.). All treatments were performed for 7 days.

MA-treated mice [4] = assay: Nigral TH-IR in MA-treated mice; details: 24 mg/kg i.p.
MA-treated mice [5] = assay: MA-induced FRA-IR in the striatum; details: morphinan 20 mg/kg i.p.; MA 1 mg/kg i.p./day x 7
Method: Therefore, brains were removed and used for immunocytochemical analysis at 18 h after the final cocaine/MA treatment. The coronal sections containing striatum were processed for FRA immunocytochemistry. […] The FRA antibody was used at 1:2,000 as the optimal dilution. The FRA-IR in the striatum was calculated using image analysis systems with a polaroid digital microscopic camera (Optimas version 6.2).

cocaine-treated mice [6] = assay: Cocaine-induced hyperlocomotion; format: in vivo; details: for effect on locomotor activity induced by low dose of cocaine: cocaine 5 mg/kg i.p. x 7 days, morphinan 15 or 30 mg/kg (DF 20 mg/kg) i.p.; for effect on hyperactivity induced by high dose of cocaine: cocaine 20 mg/kg i.p. x 7 days, morphinan 15 or 30 mg/kg i.p. 30 min before
Method: FIGS. 34A-34B show effect of morphinans on the cocaine-induced hyperactivity in the mice. Morphinans (15 and 30 mg/kg, i.p.) were administered 30 minutes prior to cocaine (5 and 20 mg/kg, i.p.). Central activity means relatively non-specific locomotor activity in the center of the box. Marginal activity means circling behaviors. All treatments were performed for 7 days.
FIGS. 35A-35D show effect of dimemorfan (DF) on cocaine-induced hyperactivity in the mice. DF (20 mg/kg, i.p.) was administered 30 minutes prior to cocaine (5 and 20 mg/kg, i.p.). All treatments were performed for 7 days.

[7] = system: kainate or maximal electric shock; details: kainate (24) or maximal electric shock (27); cited from earlier work
MA-treated mice [8] = assay: Hypokinesia induced by MA; format: in vivo; details: 12 and 24 mg/kg; 3 days after final MA
MPTP-treated mice [9] = assay: Striatal dopamine and metabolites (HPLC-EC) in MPTP-treated mice; details: for Concentration DA in the striatum: mean ± S.E.M., 8 animals
cocaine-treated mice [10] = assay: Cocaine-induced Fos-related antigen-immunoreactivity (FRA-IR) in the striatum; details: cocaine 5 mg/kg; morphinan 20 mg/kg i.p.
MA-treated mice [11] = assay: Methamphetamine (MA)-induced hyperthermia; format: in vivo; details: 24 mg/kg; MA 7.5 mg/kg i.p. x 4 at 2-h intervals
Method: Rectal temperature was recorded at 40 min after each MA treatment. […] Mice were sacrificed at 3 days after final MA injection.
FIGS. 10A-10B show effect of morphinans on the methamphetamine (MA)-induced hyperthermia. Mice received i.p. injections of MA (four injections of 7.5 mg/kg each) at 2-h intervals under the ambient temperature of 22.0±0.5° C. Temperatures were recorded at 40 min after each MA treatment (Arrow=MA injection).

MPTP-treated mice [12] = assay: Hypokinesia (reduction in locomotor activity) induced by MPTP; format: in vivo; details: 12 or 24 mg/kg i.p. 30 min before MPTP (20 mg/kg/day x 7), last three days
MA-treated mice [13] = assay: Striatal dopamine and metabolites in MA-treated mice; format: in vivo; details: for Concentration DA in the striatum: 3 days after final MA
Excerpt: Mice were sacrificed at 3 days after final MA injection.

LPS-treated mice [14] = assay: Striatal dopamine and metabolites in LPS-treated mice; format: in vivo; details: for Concentration DA in the striatum: 3 weeks after LPS
Excerpt: Control animals received striatal injection with PBS.
Mice were sacrificed at 3 weeks after LPS treatment.

LPS-treated mice [15] = assay: Hypokinesia induced by intrastriatal LPS; details: 12 or 24 mg/kg, twice before bilateral intrastriatal LPS
Method: Male mice were anesthetized with chloral hydrate (200 mg/kg, i.p.) and positioned in a small-animal stereotaxic apparatus. […] LPS (2 μg in a volume of 2 μl of PBS) was injected into both sides of the striatum over a period of 2 min, and the injection needle was kept in place for 2 min after the injection. Control animals received striatal injection with PBS.
Ten min after the last treatment with each drug, locomotor activity was measured for 30 min. After measuring the locomotor activity (i.e. 40 min after the last drug injection), the ‘absolute turn angular’ was analyzed in a 3-min monitoring period using an automated video-tracking system (Noldus Information Technology, Wagenin, The Netherlands) to examine locomotor patterns. […] Eight test boxes (40×40×30 cm high) were operated simultaneously by an IBM computer. Animals were studied individually during locomotion in each test box, where they were adapted for 10 min before starting the experiment. […] The distance traveled in cm by the animals in horizontal locomotor activity was analyzed (13, 25, 27). Data were collected and analyzed between 0900 and 1700 hr.

[16] = system: NMDA receptor associated PCP sites; details: cited from earlier work
MA-treated mice [17] = assay: MA-induced behavioural sensitization; details: morphinan 20 mg/kg i.p., last 3 days of wash-out (Ex. 3.12)
Method: Morphinans (20 mg/kg, i.p.) were administered last 3 days of wash-out period.

CB1 receptor = CB1 receptor (Rattus norvegicus, UniProt P20272); format: biochemical
Sequence of CB1 receptor (P20272 whole entry): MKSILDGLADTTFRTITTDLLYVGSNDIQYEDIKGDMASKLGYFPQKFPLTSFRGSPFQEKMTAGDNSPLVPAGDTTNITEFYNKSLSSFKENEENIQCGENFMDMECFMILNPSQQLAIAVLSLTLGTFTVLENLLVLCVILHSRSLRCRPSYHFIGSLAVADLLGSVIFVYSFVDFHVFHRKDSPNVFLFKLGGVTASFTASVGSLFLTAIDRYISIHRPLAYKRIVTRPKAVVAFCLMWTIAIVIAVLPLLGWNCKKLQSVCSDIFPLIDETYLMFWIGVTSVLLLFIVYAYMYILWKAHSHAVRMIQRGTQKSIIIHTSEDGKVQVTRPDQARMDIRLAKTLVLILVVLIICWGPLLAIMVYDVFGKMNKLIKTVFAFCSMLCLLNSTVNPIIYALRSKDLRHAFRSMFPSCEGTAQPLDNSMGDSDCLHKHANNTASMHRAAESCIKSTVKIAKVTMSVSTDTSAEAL

Sequence of σ1 receptors (Q99720 whole entry): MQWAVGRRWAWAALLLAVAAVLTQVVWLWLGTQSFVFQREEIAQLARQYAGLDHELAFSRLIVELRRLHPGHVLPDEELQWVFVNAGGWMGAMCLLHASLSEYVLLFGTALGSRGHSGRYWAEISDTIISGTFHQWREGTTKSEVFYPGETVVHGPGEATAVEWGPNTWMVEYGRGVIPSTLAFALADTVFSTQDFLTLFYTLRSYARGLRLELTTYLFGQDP

CN1CC[C@]23CCCC[C@H]2[C@H]1Cc1ccc(O)cc13 [DX, 3-hydroxy-17-methylmorphinan, reference compound]
affinity for σ1 receptors (σ1 receptors): high affinity ligands
conditioned place preference (CPP) (C57 BL/6 mice [1]): produced CPP in a dose-dependent manner
locomotor pattern (tracings) (C57 BL/6 mice [2]): produced marginal activity
marginal activity (circling behaviour; absolute turn angular) (C57 BL/6 mice [2]): significant increase in marginal activity
locomotor activity (total distance moved) (C57 BL/6 mice [2]): significantly increased locomotor activity

c1ccc(C2(N3CCCCC3)CCCCC2)cc1 [PCP, phencyclidine, reference compound]
conditioned place preference (CPP) (C57 BL/6 mice [1]): most significant CPP
locomotor pattern (tracings) (C57 BL/6 mice [2]): produced marginal activity
marginal activity (circling behaviour; absolute turn angular) (C57 BL/6 mice [2]): much stronger stereotypies

Cc1ccc2c(c1)[C@@]13CCCC[C@H]1[C@@H](C2)N(C)CC3 [DF, 3-methyl-17-methyl-morphinan]
effect on MA-induced hyperlocomotion (MA-treated mice [3]): consistently effective in attenuating hyperlocomotion induced by MA
effect on MA-induced decrease in nigral TH-positive cells (MA-treated mice [4]): significantly attenuated the decrease in TH-positive cells
effect on MA-induced FRA-IR in the striatum (MA-treated mice [5]): apparently attenuated
effect on locomotor activity induced by low dose of cocaine (cocaine-treated mice [6]): consistently attenuated locomotor activity induced by a low dose of cocaine
effect on hyperactivity induced by high dose of cocaine (cocaine-treated mice [6]): not uniform
anticonvulsant effect [7]: exhibited anticonvulsant effects
effect on MA-induced reduction in locomotor activity (MA-treated mice [8]): significantly prevented MA-induced reduction in locomotor activity
effect on MPTP-induced reductions in striatal DA, DOPAC and HVA (MPTP-treated mice [9]; 24 mg/kg pretreatment): did not alter reductions in DA, DOPAC and HVA
Concentration DOPAC in the striatum (MPTP-treated mice [9]; morphinan 12 (mg/kg) + MPTP): 44 ± 6 ng/100 mg wet tissue
Concentration HVA in the striatum (MPTP-treated mice [9]; morphinan 12 (mg/kg) + MPTP): 62 ± 7 ng/100 mg wet tissue
Concentration DA in the striatum (MPTP-treated mice [9]; morphinan 12 (mg/kg) + MPTP): 403 ± 55 ng/100 mg wet tissue
Concentration DOPAC in the striatum (MPTP-treated mice [9]; morphinan 24 (mg/kg) + MPTP): 52 ± 7 ng/100 mg wet tissue
Concentration HVA in the striatum (MPTP-treated mice [9]; morphinan 24 (mg/kg) + MPTP): 68 ± 6 ng/100 mg wet tissue
Concentration DA in the striatum (MPTP-treated mice [9]; morphinan 24 (mg/kg) + MPTP): 397 ± 55 ng/100 mg wet tissue
effect on cocaine-induced FRA-IR in the striatum (cocaine-treated mice [10]): apparently attenuated
effect on MA-induced hyperthermia (rectal temperature) (MA-treated mice [11]): attenuated by all morphinans used in this study
affinity for σ1 receptors (σ1 receptors): high affinity ligands
effect on MPTP-induced reduction in locomotor activity (MPTP-treated mice [12]): neither AM nor DF affected significantly the locomotor hypoactivity
effect on MA-induced reductions in striatal DA, DOPAC and HVA (MA-treated mice [13]; 24 mg/kg pretreatment): significantly protected
Concentration DOPAC in the striatum (MA-treated mice [13]; morphinan 12 (mg/kg) + MA): 79 ± 11 ng/100 mg wet tissue
Concentration HVA in the striatum (MA-treated mice [13]; morphinan 12 (mg/kg) + MA): 79 ± 7 ng/100 mg wet tissue
Concentration DA in the striatum (MA-treated mice [13]; morphinan 12 (mg/kg) + MA, mean ± S.E.M., 8 animals): 603 ± 65 ng/100 mg wet tissue
Concentration DOPAC in the striatum (MA-treated mice [13]; morphinan 24 (mg/kg) + MA): 94 ± 9^b ng/100 mg wet tissue
Concentration HVA in the striatum (MA-treated mice [13]; morphinan 24 (mg/kg) + MA): 92 ± 10^b ng/100 mg wet tissue
Concentration DA in the striatum (MA-treated mice [13]; morphinan 24 (mg/kg) + MA): 762 ± 81^b ng/100 mg wet tissue
effect on LPS-induced reductions in striatal DA, DOPAC and HVA (LPS-treated mice [14]; 24 mg/kg pretreatment): did not alter LPS-induced reductions in DA, DOPAC and HVA levels
Concentration DOPAC in the striatum (LPS-treated mice [14]; morphinan 12 (mg/kg) + LPS): 54 ± 7 ng/100 mg wet tissue
Concentration HVA in the striatum (LPS-treated mice [14]; morphinan 12 (mg/kg) + LPS): 62 ± 8 ng/100 mg wet tissue
Concentration DA in the striatum (LPS-treated mice [14]; morphinan 12 (mg/kg) + LPS, mean ± S.E.M., 8 animals): 635 ± 65 ng/100 mg wet tissue
Concentration DOPAC in the striatum (LPS-treated mice [14]; morphinan 24 (mg/kg) + LPS): 59 ± 8 ng/100 mg wet tissue
Concentration HVA in the striatum (LPS-treated mice [14]; morphinan 24 (mg/kg) + LPS): 63 ± 7 ng/100 mg wet tissue
Concentration DA in the striatum (LPS-treated mice [14]; morphinan 24 (mg/kg) + LPS): 459 ± 58 ng/100 mg wet tissue
conditioned place preference (CPP) (C57 BL/6 mice [1]): almost no CPP effects
effect on LPS-induced decrease in locomotor activity (LPS-treated mice [15]): neither AM nor DF were effective in attenuating locomotor hypoactivity
affinity for NMDA receptor associated PCP sites [16]: very low affinities
effect on MA-induced behavioural sensitization (MA-treated mice [17]): significantly reduced
locomotor pattern (tracings) (C57 BL/6 mice [2]): did not produce significant marginal activity
marginal activity (circling behaviour; absolute turn angular) (C57 BL/6 mice [2]): did not significantly affect marginal activity
locomotor activity (total distance moved) (C57 BL/6 mice [2]): comparable to that with saline

COc1ccc2c(c1)[C@@]13CCCC[C@H]1[C@@H](C2)NCC3 [MM, 3-methoxymorphinan, reference compound]
effect on locomotor activity induced by low dose of cocaine (cocaine-treated mice [6]): did not influence locomotor activity mediated by a low dose of cocaine
effect on hyperactivity induced by high dose of cocaine (cocaine-treated mice [6]): attenuated
effect on cocaine-induced FRA-IR in the striatum (cocaine-treated mice [10]): Neither DM nor MM affects this induction of FRA-IR

CCCCCCC(C)(C)c1ccc([C@@H]2C[C@H](O)CC[C@H]2CCCO)c(O)c1 [CP55,940, [1α, 2β-(R)-5α]-(−)-5-(1,1-dimethyl)-2-[5-hydroxy-2-(3-hydroxypropyl)cyclohexyl-phenol], reference compound]
stimulation of GTP γS binding (CB1 receptor): about 120%
